Experiment: gradient 5% acetonitrile 3 min, to 50% in 2 min, to 85% in 15 min, held 3 min, 100 µL/min
Conditions: column: Zorbax Extend-C18 2.1 x 50 mm; eluents: water / acetonitrile, 0.1% formic acid
Summary of the method: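 Data were gathered over 3 months by HPLC coupled to a quadrupole time-of-flight mass spectrometer, operated in positive and negative ionization mode. Mixtures of ~100 pure standards ran on a Zorbax Extend-C18 column (2.1 × 50 mm, 1.8 μm) at 100 μL/min, with water and acetonitrile each containing 0.1% formic acid and dead and dwell volumes of 40 μL and 900 μL. Retention time was read from adduct peaks picked by computer and checked manually.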

RP-LC retention time	SMILES
731 s	Cc1cccc(CNC(=O)c2cc3n(n2)CC(C)(C(=O)NC2CCCC2)N(C)C3=O)c1 (centres undefined)
1290 s	O=S(=O)(c1ccc2c(c1)CCCC2)N1CCCC1c1nc(-c2ccc(F)cc2)no1 (centres undefined)
668 s	Cc1cc(NC(=O)CSc2nnc3sc4ccccc4n23)no1
672 s	COc1ccc(OC)c(NC(=O)CSc2ccc(N3CCCC(C(=O)NC4CC4)C3)nn2)c1 (centres undefined)
813 s	COc1ccc(-c2cn3c(C(=O)Nc4ccc5c(c4)OCCO5)csc3n2)cc1
808 s	O=C(CCc1ccccc1)N1CCN(c2cc(-c3cccs3)[nH]n2)CC1
659 s	COCCNC(=O)CC1Sc2ncccc2N(CC(C)C)C1=O (centres undefined)
1160 s	CC(C)c1csc(-c2csc(S(=O)(=O)NCc3ccc(Cl)cc3)c2)n1
720 s	O=C(c1cn2c(n1)CSCC2)N1CCC(Cc2ccccc2)CC1
892 s	Cc1ccc(CNC(=O)c2nnc(-c3ccc(S(=O)(=O)N(C)C)cc3)o2)cc1
634 s	COc1cccc(NC(=O)Cn2nc3n(c2=O)CCCC3)c1
956 s	Cc1cccc(-c2nnc(-c3nc(NCCc4c(C)noc4C)c4ccccc4n3)o2)c1
630 s	CC(=O)N1c2ccc(S(=O)(=O)N3CCCC3)cc2CC1C(=O)NCCN1CCCCCC1 (centres undefined)
805 s	Cn1nc(C(=O)N2CCCN(c3cc(-c4ccc(Cl)cc4)[nH]n3)CC2)c2ccccc21
546 s	COCCN1C(=O)CC[C@]2(C(=O)N(C)CCc3ccccn3)CCCC[C@@H]12
705 s	CCn1cc(CCNC(=O)c2sccc2C)c2cccnc21
1330 s	Cc1ccc(-c2noc(-c3ccccc3S(=O)(=O)NCCC(C)C)n2)cc1
627 s	Cc1cc2nn(CC(=O)NCc3ccccc3)c(=O)n2c(-c2cccc(F)c2)n1
858 s	CC1=C(c2ccc(C)c(C)c2)S(=O)(=O)N=C1N1CCCN(C(=O)c2ccsc2)CC1
669 s	CCCN(C)C(=O)C1CCN(c2cnn(CCC)c(=O)c2)CC1
948 s	O=C(C1CCC1)N1CCc2sc(S(=O)(=O)NCc3ccc(F)cc3Cl)cc2C1
591 s	CCOC(=O)N1CCN(CC(O)COc2c(F)cc(Br)cc2F)CC1 (centres undefined)
768 s	CC1CCN(S(=O)(=O)c2ccc3c(c2)CCCC(=O)N3CC(=O)N2CCOCC2)CC1
890 s	CCn1ccc(C(=O)N2CCCC2c2cccc(C)c2)n1 (centres undefined)
923 s	CCc1ccc(S(=O)(=O)N2c3ccccc3NC3=C(C(=O)CCC3)C2c2ccco2)cc1 (centres undefined)
680 s	Cc1ccc(CSc2nc(CC(=O)N3CCC(C(N)=O)CC3)cs2)cc1

RP-LC retention time	SMILES
843 s	CC(=O)N1CCCc2cc(S(=O)(=O)N3CCC(C(=O)N4CCc5ccccc5C4)CC3)ccc21
1010 s	CCn1cc(C)c(C(=O)O)c1CC(=O)Nc1ccc(Cl)cc1
841 s	COCCCNC(=O)CCc1cn(-c2ccccc2)nc1-c1ccc2c(c1)OCO2
651 s	Cc1nc(N2CCCC2)cc(N2CCN(C(=O)c3ccccc3Br)CC2)n1
817 s	CCn1c(CCC(=O)NCc2ccccc2OC)nc2ccc(C)cc2c1=O
788 s	O=C(NC1CC1)C1CCCN(c2nccn3nc(-c4ccccc4Cl)cc23)C1 (centres undefined)
806 s	O=C(NCc1ccc(F)cc1F)c1ccc2c(c1)nc1n2CCN(C2CCCCC2)C1=O
591 s	COC(=O)CNC(=O)NCCn1c(-c2ccccc2)nc2cccnc21
1050 s	COCCn1cc(C(=O)Nc2cccc(Cl)c2)c2nn(-c3ccccc3)c(=O)c-2c1
923 s	CC(C)NC(=O)N1CCCC(c2cccc(C(=O)NCc3ccc(Cl)cc3)c2)C1 (centres undefined)
521 s	O=C(c1ccco1)N1CCC(c2nc(C3CC3)n[nH]2)CC1
764 s	COc1cccc(-c2ccc(=O)n(CCCC(=O)Nc3cccc4nsnc34)n2)c1
1320 s	CCC(C)n1c(=O)c2ccccc2n(Cc2nc(-c3ccc(Br)cc3)no2)c1=O (centres undefined)
682 s	CC(C)Cn1c(=O)c(N2CCN(C(=O)c3ccccc3Cl)CC2)nc2ccncc21
1200 s	O=C1CC(c2noc(-c3ccc4c(c3)OCO4)n2)CN1c1ccc(F)cc1 (centres undefined)
607 s	COc1ccc(-c2nc(Cn3ccnc3C)no2)cc1
1130 s	Fc1ccc(Cc2nc3nccc(-c4cc5ccccc5o4)n3n2)cc1
705 s	COC(=O)c1cnc2nc(C)ccc2c1Nc1cccc(Cl)c1
800 s	Cc1cc(C(=O)NCC23CCCC=C2N(CC2CC2)C(=O)CC3)n(C)n1 (centres undefined)
664 s	COc1ccc(Cl)cc1NC(=O)N1CCN(C2=CC3=NC(C)CN3C=N2)CC1 (centres undefined)
1190 s	COc1ccccc1N1CCN(c2cc(SCC(=O)Nc3cc(F)ccc3Cl)ncn2)CC1
594 s	O=C(O)c1cc(NS(=O)(=O)c2cccc(F)c2)ccc1N1CCCC(CN2CCCC2)C1 (centres undefined)
782 s	O=C(Cn1ccc2c(SCc3ccc(F)cc3)nccc21)N1CCN(c2ccccc2)CC1
564 s	COc1ccc2c(c1)c(CN1CCC(C(=O)NCCN3CCN(C)CC3)CC1)cn2C
726 s	O=C(NC(c1ccccc1)c1nnc(N2CCOCC2)o1)c1ccc2c(c1)OCO2 (centres undefined)
780 s	CCOC(=O)c1c(S(=O)(=O)N2CCC(C(=O)Nc3nc(C)cs3)CC2)c(C)n(C)c1C

Continued, molecule first:

SMILES	RP-LC retention time
CCOC(=O)c1c(N)n(Cc2cccc(OC)c2)c2nc3ccccc3nc12	750 s
O=C(CCn1nnc2cc(-c3noc(-c4ccc(F)c(F)c4)n3)ccc21)N1CCCC1	946 s
Cc1cc(C)cc(NC(=O)Cn2c(N3CCOCC3)nc(C)cc2=O)c1	711 s
COc1ccc(-c2cn3c(CC(=O)NC4CC4)csc3n2)cc1OC	607 s
COCCc1noc(-c2ccc(=O)n(CC(=O)Nc3ccccc3F)c2)n1	695 s
COC1CCC12CCN(C(=O)C1CCCCC1)CC2 (centres undefined)	903 s
COC(=O)c1cc(OCC(=O)Nc2ccc(F)cc2)c2cc(OC)ccc2n1	810 s
CCOC(=O)C1=C(C)NC2=C(C(=O)C(C(=O)OC)C(C)C2)C1c1ccc(F)cc1 (centres undefined)	870 s
CCCn1cc(CCNS(=O)(=O)c2ccc(F)c(C)c2)c2cccnc21	893 s
Cc1ccc(CNC(=O)C2(C)Cn3nc(C)cc3C(=O)N2c2ccc3c(c2)OCCO3)cc1 (centres undefined)	809 s
CC(C)c1noc(-c2ccc(-n3cnc(C(=O)N4CCOCC4)c3)nc2)n1	745 s
CCCCNC(=O)C1CCc2nc(N3CCC(C)CC3)ncc2C1 (centres undefined)	758 s
COc1ccccc1-c1nc(C2CCN(C(=O)c3cccc4[nH]ccc34)CC2)no1	652 s
CCc1ccc(NC(=O)Cn2c(N3CCOCC3)nc(CC)cc2=O)cc1	747 s
O=C(C1=CN(c2ccccc2)c2cc(Cl)ccc2S1(=O)=O)N1CCCC1	827 s
COc1ccc(N2CCN(c3ccc4cc(S(=O)(=O)N5CCC(C)CC5)ccc4n3)CC2)cc1	1060 s
COc1ccccc1N1CCN(C(=O)c2nnc(-c3ccc(S(=O)(=O)N4CCCC4)cc3)o2)CC1	972 s
COc1c2c(c(OC)c3c1c(=O)c1ccccc1n3C)OCO2	767 s
CS(=O)(=O)Nc1cccc(NC(=O)CCc2c[nH]c3ccccc23)c1	714 s

SMILES	RP-LC retention time
Cc1ccn2cc(C(=O)NCc3cccc(F)c3)nc2c1	645 s
Clc1cc(Cl)cc(-c2ccc(CNCc3cccnc3)o2)c1	733 s
CC(C)C(=O)N1CCc2cc(C(N)=O)ccc21	637 s
Cc1cccc(-c2nocc2CCC(=O)NC(C)c2ccc(F)cc2)c1 (centres undefined)	965 s
O=S(=O)(c1cccc(-c2nc(-c3ccccc3)no2)c1)N1CCC2(CC1)OCCO2	784 s
CCc1ccc(-c2cc(C(F)(F)F)on2)cc1S(=O)(=O)N1CCC(C)CC1	1350 s
COc1ccc(NC(=O)C2CCN(C(=O)C3Sc4ccccc4NC3=O)CC2)c(OC)c1 (centres undefined)	754 s
CC(C)Cc1ccc(-c2csc(NC(=O)c3cnccn3)n2)cc1	1130 s
CCc1ccc(-c2noc(Cn3c(=O)n(-c4ccccc4)c(=O)c4sccc43)n2)cc1	1090 s
CCOc1ccccc1NC(=O)N1c2ccccc2CC1c1nc(C2CC2)no1 (centres undefined)	1180 s
Cc1cc(-c2nnc(NC(=O)c3cc(Cl)sc3Cl)o2)n(C)n1	772 s
Cc1nn(C(C)C)c(C)c1S(=O)(=O)N1CCN(C(=O)C2(c3ccccc3)CC2)CC1	890 s
CN1CCN(CCNC(=O)c2cc(-c3ccccc3)cn2C)CC1	600 s
Cc1ccccc1-c1noc(CCc2nnc3ccc(N4CCOCC4)nn23)n1	782 s
CCc1cc(-c2csc(S(=O)(=O)Nc3ccc(C(C)C)cc3)c2)on1	1100 s
COc1ccc(CCNC(=O)C2CCc3nc(N4CCCC4)ncc3C2)cc1OC (centres undefined)	563 s
COc1cccc(NC(=O)C2CCN(S(=O)(=O)c3cn(C)cn3)CC2)c1	656 s
Cc1nc(-c2cn(C)c3ncccc23)sc1C(=O)Nc1ccccc1F	922 s
